The record followed here is paper PMC4077385, “Synthesis of the first examples of iminosugar clusters based on cyclopeptoid cores” (Beilstein Journal of Organic Chemistry, 2014).

The assay deals with T1, jack bean α-mannosidase (Canavalia ensiformis, UniProt C0HJB3).
T1 construct: purchased Sigma–Aldrich
T1 sequence (C0HJB3 1-981): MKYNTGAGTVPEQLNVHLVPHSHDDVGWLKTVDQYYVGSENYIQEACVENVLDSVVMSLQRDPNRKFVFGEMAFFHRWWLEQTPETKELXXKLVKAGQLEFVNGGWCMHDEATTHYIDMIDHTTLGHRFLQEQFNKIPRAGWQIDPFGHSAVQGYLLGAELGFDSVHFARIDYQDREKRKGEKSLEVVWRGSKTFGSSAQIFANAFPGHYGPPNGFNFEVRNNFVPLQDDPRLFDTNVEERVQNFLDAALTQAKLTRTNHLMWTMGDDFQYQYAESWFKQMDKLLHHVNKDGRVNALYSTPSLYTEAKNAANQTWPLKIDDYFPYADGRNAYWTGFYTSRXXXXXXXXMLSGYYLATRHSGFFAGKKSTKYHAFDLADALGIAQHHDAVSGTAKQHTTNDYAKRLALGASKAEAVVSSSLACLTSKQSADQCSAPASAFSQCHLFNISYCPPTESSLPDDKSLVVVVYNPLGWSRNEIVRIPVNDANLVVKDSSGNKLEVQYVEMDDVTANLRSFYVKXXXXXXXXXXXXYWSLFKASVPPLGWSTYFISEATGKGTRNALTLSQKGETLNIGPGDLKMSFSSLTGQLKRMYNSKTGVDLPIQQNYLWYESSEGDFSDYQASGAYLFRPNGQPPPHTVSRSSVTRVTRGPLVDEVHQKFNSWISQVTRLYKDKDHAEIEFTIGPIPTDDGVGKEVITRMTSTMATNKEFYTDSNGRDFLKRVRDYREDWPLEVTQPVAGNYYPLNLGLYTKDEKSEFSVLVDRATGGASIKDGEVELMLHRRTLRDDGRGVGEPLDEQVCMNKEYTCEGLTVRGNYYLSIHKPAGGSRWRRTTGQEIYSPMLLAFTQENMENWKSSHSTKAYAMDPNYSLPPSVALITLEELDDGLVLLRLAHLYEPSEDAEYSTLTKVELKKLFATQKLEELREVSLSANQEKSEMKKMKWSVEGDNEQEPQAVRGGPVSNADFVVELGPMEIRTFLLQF
Nature of the assay: Jack bean α-mannosidase inhibition assay (Ki, Dixon method). The format is biochemical. The note with it: for rp (relative inhibition potency): Ki (monovalent reference)/Ki (glycocluster), reference 11a for C6, 11b for C9 linker; for rp/n: relative inhibition potency/number of iminosugar units (valency-corrected). The method, then:
General procedure for inhibition assay
The p-nitrophenyl-α-D-mannopyranoside and α-mannosidase (EC 3.2.1.24, from jack bean, […]
The release of p-nitrophenol was measured continuously at 385 nm to determine initial velocities.[1] All kinetics were performed at 35 °C and started by substrate addition in a 1 mL assay medium (acetate buffer, 0.2 M, pH = 5) containing α-mannosidase (5 mU), substrate (varying concentration from Km/4 to Km value) in presence or absence of various concentrations of inhibitor. Ki […]
are only partially soluble in water, they were dissolved in DMSO for concentrated mother solutions and DMSO/buffer for diluted solutions with a final DMSO concentration under […]
2,5% in all vials. […]
1 Behr, J.-B.; Chevrier, C.; Defoin, A.; Tarnus, C.; Streith, J. Tetrahedron 2003, 59, 543–553.
2 Segel, I. H. Enzyme Kinetics; John Wiley & Sons, New York, 1975, p. 109–144.

Where [1] appears, read: α-mannosidase EC 3.2.1.24 (5 mU), substrate p-nitrophenyl-α-D-mannopyranoside Km/4 to Km, acetate buffer 0.2 M pH 5, 35 °C, p-nitrophenol release at 385 nm, DMSO under 2,5%, Dixon graphical method, determined in duplicate, read-out: Ki.

In general, Ki refers to a measure of affinity in units of concentration, obtained from inhibition or displacement.

Read-outs that look alike come from different tables or passages of the source.

For `O=C1CN(Cc2cn(CCCCCCCCCN3C[C@H](O)[C@@H](O)[C@H](O)[C@H]3CO)nn2)C(=O)CN(Cc2cn(CCCCCCCCCN3C[C@H](O)[C@@H](O)[C@H](O)[C@H]3CO)nn2)C(=O)CN(Cc2cn(CCCCCCCCCN3C[C@H](O)[C@@H](O)[C@H](O)[C@H]3CO)nn2)C(=O)CN(Cc2cn(CCCCCCCCCN3C[C@H](O)[C@@H](O)[C@H](O)[C@H]3CO)nn2)C(=O)CN(Cc2cn(CCCCCCCCCN3C[C@H](O)[C@@H](O)[C@H](O)[C@H]3CO)nn2)C(=O)CN(Cc2cn(CCCCCCCCCN3C[C@H](O)[C@@H](O)[C@H](O)[C@H]3CO)nn2)C(=O)CN(Cc2cn(CCCCCCCCCN3C[C@H](O)[C@@H](O)[C@H](O)[C@H]3CO)nn2)C(=O)CN(Cc2cn(CCCCCCCCCN3C[C@H](O)[C@@H](O)[C@H](O)[C@H]3CO)nn2)C(=O)CN(Cc2cn(CCCCCCCCCN3C[C@H](O)[C@@H](O)[C@H](O)[C@H]3CO)nn2)C(=O)CN1Cc1cn(CCCCCCCCCN2C[C@H](O)[C@@H](O)[C@H](O)[C@H]2CO)nn1` [Compound 10f], the affinity corresponds to a Ki of 5 ± 1 µM.

`O=C1CN(Cc2cn(CCCCCCCCCN3C[C@H](O)[C@@H](O)[C@H](O)[C@H]3CO)nn2)C(=O)CN(Cc2cn(CCCCCCCCCN3C[C@H](O)[C@@H](O)[C@H](O)[C@H]3CO)nn2)C(=O)CN(Cc2cn(CCCCCCCCCN3C[C@H](O)[C@@H](O)[C@H](O)[C@H]3CO)nn2)C(=O)CN(Cc2cn(CCCCCCCCCN3C[C@H](O)[C@@H](O)[C@H](O)[C@H]3CO)nn2)C(=O)CN(Cc2cn(CCCCCCCCCN3C[C@H](O)[C@@H](O)[C@H](O)[C@H]3CO)nn2)C(=O)CN(Cc2cn(CCCCCCCCCN3C[C@H](O)[C@@H](O)[C@H](O)[C@H]3CO)nn2)C(=O)CN(Cc2cn(CCCCCCCCCN3C[C@H](O)[C@@H](O)[C@H](O)[C@H]3CO)nn2)C(=O)CN1Cc1cn(CCCCCCCCCN2C[C@H](O)[C@@H](O)[C@H](O)[C@H]2CO)nn1` [Compound 10d] yielded a Ki of 8 ± 3 µM.

Consider `O=C1CN(Cc2cn(CCCCCCCCCN3C[C@H](O)[C@@H](O)[C@H](O)[C@H]3CO)nn2)C(=O)CN(Cc2cn(CCCCCCCCCN3C[C@H](O)[C@@H](O)[C@H](O)[C@H]3CO)nn2)C(=O)CN(Cc2cn(CCCCCCCCCN3C[C@H](O)[C@@H](O)[C@H](O)[C@H]3CO)nn2)C(=O)CN(Cc2cn(CCCCCCCCCN3C[C@H](O)[C@@H](O)[C@H](O)[C@H]3CO)nn2)C(=O)CN(Cc2cn(CCCCCCCCCN3C[C@H](O)[C@@H](O)[C@H](O)[C@H]3CO)nn2)C(=O)CN1Cc1cn(CCCCCCCCCN2C[C@H](O)[C@@H](O)[C@H](O)[C@H]2CO)nn1` [Compound 10b], for which the “rp (relative inhibition potency)” value was determined as 17 and the rp/n was 2.8. For the same compound, the Ki under setting [1] stood at 11 ± 1 µM.

`O=C1CN(Cc2cn(CCCCCCN3C[C@H](O)[C@@H](O)[C@H](O)[C@H]3CO)nn2)C(=O)CN(Cc2cn(CCCCCCN3C[C@H](O)[C@@H](O)[C@H](O)[C@H]3CO)nn2)C(=O)CN(Cc2cn(CCCCCCN3C[C@H](O)[C@@H](O)[C@H](O)[C@H]3CO)nn2)C(=O)CN(Cc2cn(CCCCCCN3C[C@H](O)[C@@H](O)[C@H](O)[C@H]3CO)nn2)C(=O)CN(Cc2cn(CCCCCCN3C[C@H](O)[C@@H](O)[C@H](O)[C@H]3CO)nn2)C(=O)CN(Cc2cn(CCCCCCN3C[C@H](O)[C@@H](O)[C@H](O)[C@H]3CO)nn2)C(=O)CN(Cc2cn(CCCCCCN3C[C@H](O)[C@@H](O)[C@H](O)[C@H]3CO)nn2)C(=O)CN1Cc1cn(CCCCCCN2C[C@H](O)[C@@H](O)[C@H](O)[C@H]2CO)nn1` [Compound 10c] registered a Ki of 21 ± 2 µM.

Turning to `O=C1CN(Cc2cn(CCCCCCN3C[C@H](O)[C@@H](O)[C@H](O)[C@H]3CO)nn2)C(=O)CN(Cc2cn(CCCCCCN3C[C@H](O)[C@@H](O)[C@H](O)[C@H]3CO)nn2)C(=O)CN(Cc2cn(CCCCCCN3C[C@H](O)[C@@H](O)[C@H](O)[C@H]3CO)nn2)C(=O)CN(Cc2cn(CCCCCCN3C[C@H](O)[C@@H](O)[C@H](O)[C@H]3CO)nn2)C(=O)CN(Cc2cn(CCCCCCN3C[C@H](O)[C@@H](O)[C@H](O)[C@H]3CO)nn2)C(=O)CN1Cc1cn(CCCCCCN2C[C@H](O)[C@@H](O)[C@H](O)[C@H]2CO)nn1` [Compound 10a], the Ki under setting [1] was 65 ± 24 µM.

On to `O=C1CN(Cc2cn(CCCCCCN3C[C@H](O)[C@@H](O)[C@H](O)[C@H]3CO)nn2)C(=O)CN(Cc2cn(CCCCCCN3C[C@H](O)[C@@H](O)[C@H](O)[C@H]3CO)nn2)C(=O)CN(Cc2cn(CCCCCCN3C[C@H](O)[C@@H](O)[C@H](O)[C@H]3CO)nn2)C(=O)CN(Cc2cn(CCCCCCN3C[C@H](O)[C@@H](O)[C@H](O)[C@H]3CO)nn2)C(=O)CN(Cc2cn(CCCCCCN3C[C@H](O)[C@@H](O)[C@H](O)[C@H]3CO)nn2)C(=O)CN(Cc2cn(CCCCCCN3C[C@H](O)[C@@H](O)[C@H](O)[C@H]3CO)nn2)C(=O)CN(Cc2cn(CCCCCCN3C[C@H](O)[C@@H](O)[C@H](O)[C@H]3CO)nn2)C(=O)CN(Cc2cn(CCCCCCN3C[C@H](O)[C@@H](O)[C@H](O)[C@H]3CO)nn2)C(=O)CN(Cc2cn(CCCCCCN3C[C@H](O)[C@@H](O)[C@H](O)[C@H]3CO)nn2)C(=O)CN1Cc1cn(CCCCCCN2C[C@H](O)[C@@H](O)[C@H](O)[C@H]2CO)nn1` [Compound 10e], for which the “rp (relative inhibition potency)” value is 21 and the rp/n was 2.1. This compound also showed a Ki (as E1 but single determination of Ki without duplicate) of 15 ± 10 µM.
